Assay results: EP0668759B1, “TRANSDERMAL DELIVERY OF KETOROLAC” (Neurogesx, Inc., priority 1992, dated 1994)

Legend:
[1] = assay type: in vitro ADME, Human
Experimental: Skin permeation rates of various ketorolac/enhancer formulations were determined using flow through diffusion cells with an active area of 1 cm^2 and a receiving column of 3 ml. The receptor fluid, isotonic saline, was pumped into and through the cells by a peristaltic pump. Samples were collected in glass vials arranged in an automatic fraction collector. Human skin was placed on the lower half of the diffusion cell with the stratum corneum facing the donor compartment. The test solution or transdermal device was placed on the stratum corneum and the amount of drug permeated across the skin (µg/cm^2·hr) was calculated from the cumulative release.

[2] = approximate; cited from earlier work
[3] = in the presence of light; cited from earlier work
[4] = water and methanol; cited from earlier work

For `O=C(c1ccccc1)c1ccc2n1CC[C@@H]2C(=O)O` [(-) ketorolac], the “permeability to human skin” value [1] was “as permeable to human skin as the racemate”.

For `O=C(c1ccccc1)c1ccc2n1CCC2C(=O)O` (racemic) [ketorolac], the half-life [2] is listed as about 4 h and the stability to light [3] is listed as “degrades in the presence of light”.

In the case of `O=C(c1ccccc1)c1ccc2n1CCC2C(=O)O` (stereo not shown) [Ketorolac tromethamine], the solubility [4] is given as “freely soluble in water and methanol”.
